Results as given in US20170327556A1, “CARTILAGE-BINDING FUSION PROTEINS” (Merrimack Pharmaceuticals, Inc., priority 2013, published 2017).

The substances below were run on AKT phosphorylation in bovine chondrocytes (assay: Stimulation of AKT phosphorylation in primary bovine chondrocytes (pAKT ELISA)). Conditions: 10 min stimulation, doses in M (Table 4), 6x-Histidine-tagged fusion proteins.
Assay type: cell-based
Protocol: Fusion proteins comprising IGF-1 and a cartilage matrix binding domain were prepared as described above. Six fusion proteins were prepared: GF-Fus1 (6x-Histidine-tagged), GF-Fus2(6x-Histidine-tagged), GF-Fus3 (6x-Histidine-tagged), GF-Fus4 (6x-Histidine-tagged), GF-Fus5 (6x-Histidine-tagged), and GF-Fus6 (6x-Histidine-tagged). In order to ensure that the growth factor portion of the fusion protein was active in the fusion proteins, each construct was tested for its ability to stimulate AKT phosphorylation. Wild-type IGF-1 (wtIGF) was included as a control. Bovine chondrocytes were stimulated with a range of doses of each fusion protein, and pAKT levels were measured by ELISA.
Bovine chondrocytes are isolated from the femoral chondyles of 2-4 week old bovine calves. Knee joints are mounted by removing all tissue surrounding the femur, removing the femoral head with a bone saw or hack saw, and clamping in a tissue vice. Joints are aseptically opened, removing the patella, tibia and fibula. Using a scalpel, cartilage is sliced off the femoral chondyles and placed in sterile PBS (pH=7.4) containing penicillin-streptomycin (1×, Gibco 15140-122). PBS is subsequently removed and pronase solution (50 mL per 5 g of tissue), consisting of high glucose DMEM (Life Technologies Cat#11965-092), fetal bovine serum (10% v/v, Life Technologies Cat#16140071), HEPES (100 mM, Gibco 15630-080), non-essential amino acids (1×, Sigma M7145), penicillin-streptomycin (1×, Gibco 15140-122), proline (400 μM, Sigma P5607-256), Protease Type XIV (2 mg/mL, Sigma Cat# P5147), is added for 1 hour with stirring. After rinsing twice with sterile PBS (pH=7.4), collagenase solution (50 mL per 5 g of tissue), consisting of high glucose DMEM (Life Technologies Cat#11965-092), fetal bovine serum (10% v/v, Life Technologies Cat#16140071), HEPES (100 mM, Gibco 15630-080), NEAA(1×, Sigma M7145), Penicillin-Streptomycin (1×, Gibco 15140-122), 0.25 mg/mL Collagenase P (Roche Cat#11 249 002 001), is added for 18 hours with stirring. Cell are strained, washed, and resuspended in chondrocyte culture medium (low glucose DMEM (1× Gibco 11885-084), Penicillin-Streptomycin (1×, Gibco 15140-122), non-essential amino acids (1×, Sigma M7145), and HEPES (100 mM, Gibco 15630-080)) with fetal bovine serum (10% v/v, Life Technologies Cat#16140071).
For ligand stimulation, chondrocytes were seeded at 200,000 cells/well into 96-well tissue culture plates with 100 μL of chondrocyte culture medium with fetal bovine serum (10% v/v, Life Technologies Cat#16140071). […]

“wtIGF: Wild-type IGF-1 (R&D systems 291-G1), control [reference compound]” and “GF-Fus1: IGF-1 variant polypeptide Long [R^3]-IGF-1, no fused binding domain; used 6x-Histidine-tagged as control [reference compound]” are within 0.2 log units of each other in “logEC50 Mean” value: −9.071 for the first, −9.227 for the second.

In the case of “GF-Fus3: C-terminal fusion IGF-1(LR3)-PRELP heparin binding domain”, the “logEC50 Mean” value is reported as −9.175.
